Measured values as given in PubChem BioAssay (NCI).
Where “and” joins values, the source holds several entries; their conditions need not be identical. Identical values can stand only once.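 Grown in 96-well plates, cells were treated for 48 hours with each compound at five concentrations. Insufficient inhibition: endpoint recorded as highest concentration tested. GI50 is the concentration that inhibits growth by half. TGI is the concentration that stops growth completely.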

Tests used:
Test in all cases: NCI anticancer screen, dose series, 48 h
786-0 renal = tested on: 786-0 renal
A549 NSCLC = tested on: A549 NSCLC
COLO 205 colon = tested on: COLO 205 colon
HCC-2998 colon = tested on: HCC-2998 colon
HCT-15 colon = tested on: HCT-15 colon
OVCAR-8 ovarian = tested on: OVCAR-8 ovarian
RPMI-8226 leukemia = tested on: RPMI-8226 leukemia
RXF 393 renal = tested on: RXF 393 renal
UACC-62 melanoma = tested on: UACC-62 melanoma
UO-31 renal = tested on: UO-31 renal

SMILES	TGI (786-0 renal)	TGI (A549 NSCLC)	TGI (COLO 205 colon)	TGI (HCC-2998 colon)	TGI (HCT-15 colon)	TGI (OVCAR-8 ovarian)	TGI (RPMI-8226 leukemia)	TGI (RXF 393 renal)	TGI (UACC-62 melanoma)	TGI (UO-31 renal)	GI50 (786-0 renal)	GI50 (A549 NSCLC)	GI50 (COLO 205 colon)	GI50 (HCC-2998 colon)	GI50 (HCT-15 colon)	GI50 (OVCAR-8 ovarian)	GI50 (RPMI-8226 leukemia)	GI50 (RXF 393 renal)	GI50 (UACC-62 melanoma)	GI50 (UO-31 renal)
CC1=Nc2ccccc2C1C(Cc1ccccc1N)c1c(C)[nH]c2ccccc12 (centres undefined)	28.6 µM	32.8 µM	30.2 µM	30.2 µM	51 µM	32.6 µM	52.4 µM	35.1 µM	26.3 µM	31.8 µM	–	–	–	–	–	–	–	–	–	–
C=C(CCCCC)CN1CCCC1[C@@](C)(O)CC(=O)OCC (some centres undefined)	> 100 µM	> 100 µM	> 100 µM	> 100 µM	> 100 µM	> 100 µM	> 100 µM	> 100 µM	> 100 µM	> 100 µM	–	–	–	–	–	–	–	–	–	–
COc1ccc(N2C(=O)C(c3ccccc3)(c3ccccc3)C23C(=O)N(C)c2ccccc23)cc1 (centres undefined)	> 100 µM	> 100 µM	> 100 µM	> 100 µM	> 100 µM	> 100 µM	> 100 µM	> 100 µM	> 100 µM	> 100 µM	> 100 µM	> 100 µM	> 100 µM	> 100 µM	> 100 µM	> 100 µM	> 100 µM	> 100 µM	> 100 µM	> 100 µM
CC[C@]12C=CCN3CC[C@@]4(c5ccc(OC)cc5N(C)[C@H]4[C@@](O)(C(=O)OC)[C@@H]1OC(=O)CCC[P+](c1ccccc1)(c1ccccc1)c1ccccc1)[C@@H]32	8.03 µM	36.2 µM and 11.4 µM	0.611 µM and 0.454 µM	2.67 µM and 1.64 µM	20.7 µM and 28.8 µM	6.77 µM and 9.71 µM	1.29 µM and 0.597 µM	2.94 µM and 4.34 µM	0.964 µM and 1.42 µM	26.2 µM and 26.9 µM	2.13 µM	1.5 µM and 1.11 µM	0.161 µM and 0.208 µM	0.449 µM and 0.425 µM	8.69 µM and 14.2 µM	1.45 µM and 1.59 µM	0.118 µM and 0.164 µM	0.736 µM and 1.53 µM	0.3 µM and 0.379 µM	8.57 µM and 13.4 µM
Clc1coc2nc3ccccc3c(Nc3ccc4c(c3)OCO4)c12	> 42.6 µM	22.3 µM	30 µM	2.8 µM	8.05 µM	21.2 µM	4.44 µM	8.47 µM	5.32 µM	> 100 µM	2.73 µM	0.995 µM	2.05 µM	0.404 µM	0.429 µM	2.33 µM	1.45 µM	1.51 µM	0.408 µM	6.5 µM
Cn1cc(C2=C(c3ccc4ccccc4c3)C(=O)NC2=O)c2ccccc21	> 25 µM	> 25 µM	> 25 µM	> 25 µM	> 25 µM	> 25 µM	> 25 µM	> 25 µM	> 25 µM	> 25 µM	> 25 µM	> 21.8 µM	20.8 µM	> 25 µM	6.27 µM	> 25 µM	> 23.8 µM	> 25 µM	21.3 µM	> 12.4 µM
CCC[CH2][Sn]([CH2]CCC)([CH2]CCC)[O]C(=O)CC	0.295 µM	0.342 µM	0.372 µM	0.316 µM	0.409 µM	0.444 µM	0.506 µM	0.285 µM	0.405 µM	0.314 µM	0.151 µM	0.172 µM	0.178 µM	0.171 µM	0.156 µM	0.205 µM	0.169 µM	0.14 µM	0.178 µM	0.15 µM
O=C1NC(=Nc2ccccc2)S/C1=C\c1ccc2ncccc2c1	> 25 µM	> 25 µM	> 25 µM	> 25 µM	> 25 µM	> 25 µM	> 25 µM	> 25 µM	> 25 µM	> 25 µM	> 25 µM	> 7.12 µM	> 25 µM	> 25 µM	1.1 µM	> 25 µM	–	> 25 µM	13.4 µM	> 25 µM
C/C(=C\CCc1ccoc1)CC/C=C(\C)CCCC1=CC(=O)OC1	42.2 µM	> 100 µM	23.1 µM	29.1 µM	20 µM	29.8 µM	16.7 µM	15.7 µM	29.7 µM	48.7 µM	9.16 µM	4.37 µM	4.96 µM	8.4 µM	4.47 µM	5.11 µM	2.85 µM	3.17 µM	4.73 µM	4.35 µM
C/C1=C\CC[C@@]2(C)O[C@@H]2[C@H]2OC(=O)[C@@H](CN(C)C)[C@@H]2CC1	24 µM	63.3 µM	98.4 µM	35.7 µM	34.3 µM	52.8 µM	23.1 µM	50.5 µM	34.9 µM	5.95 µM	7.61 µM	19.6 µM	33.8 µM	18 µM	15.9 µM	23.2 µM	2.39 µM	16.1 µM	17.7 µM	2.31 µM
CC/C(=C(/c1ccc(OCCN(C)C)cc1)c1ccc(OC(=O)CCCCC(=O)c2c(C)[nH]c(/C=C3\N=C(c4ccc[nH]4)C=C3OC)c2C)cc1)c1ccccc1	19.2 µM	15.7 µM	23.2 µM	26.7 µM	28.5 µM	19.9 µM	18.8 µM	17.7 µM	17.8 µM	21.3 µM	4.77 µM	3.92 µM	10.7 µM	13.2 µM	4.44 µM	6.55 µM	3.17 µM	3.86 µM	4.94 µM	2.81 µM
C=C(C)[C@@]12OC3(/C=C/C=C/CCCCC)O[C@@H]1[C@@H]1[C@@H]4O[C@]4(CO)[C@@H](O)[C@]4(O)C(=O)C(C)=C[C@H]4[C@@]1(O3)[C@H](C)[C@H]2OC(=O)c1ccccc1	2.53 µM	2.04 µM	1.6 µM	1.8 µM	2.9 µM	7.08 µM	> 23.2 µM	3.49 µM	6.86 µM	1.85 µM	1.23 µM	< 0.01 µM	< 0.01 µM	< 0.01 µM	1.42 µM	2.77 µM	3.35 µM	1.87 µM	3.19 µM	0.0221 µM
CCOC(=O)/C=C/C(C(=O)/C=C/c1ccc(OC2CCCCO2)c(OC)c1)=C(O)\C=C\c1ccc(OC2CCCCO2)c(OC)c1 (centres undefined)	20.3 µM	39 µM	11.4 µM	21.6 µM	12.6 µM	6.2 µM	17.8 µM	5.68 µM	12.8 µM	7.56 µM	4.96 µM	13.5 µM	3.1 µM	9.53 µM	3.59 µM	2.51 µM	4.13 µM	2.21 µM	3.02 µM	2.63 µM
Cc1c2cccnc2c(C)c2c1c1cc(CO)ccc1n2C	12.7 µM	11.7 µM	6.11 µM	13.9 µM	15.4 µM	18.1 µM	7.3 µM	5.5 µM	4.56 µM	10.5 µM	2.17 µM	2.65 µM	1.51 µM	3.38 µM	2 µM	1.55 µM	2.09 µM	1.93 µM	1.41 µM	1.41 µM
O=C(c1ccccc1)c1cc(Cl)ccc1OCCCCN1CCN(CCCCOc2ccc(Cl)cc2C(=O)c2ccccc2)CC1	3.7 µM	20.9 µM	4.78 µM	4.05 µM	4.27 µM	3.37 µM	2.8 µM	5.08 µM	21.9 µM	15.1 µM	1.96 µM	6.6 µM	1.95 µM	2.13 µM	2.1 µM	1.82 µM	1.16 µM	2.53 µM	9.87 µM	3.86 µM
CC1=CC(/C=C(\C)CCCc2ccoc2)C2(OC(=O)C(C)=C2O)[C@H]2C1CC[C@@H]2C (some centres undefined)	32.2 µM	> 100 µM	47 µM	74.2 µM	39.8 µM	> 100 µM	59.6 µM	60.5 µM	37.5 µM	31 µM	–	–	–	–	–	–	–	–	–	–
COC(=O)C1=C(c2ccc3c(c2)OCO3)O[C@H](c2cc(OC)c(OC)c(OC)c2)[C@H]1COC(C)=O	42.3 µM	47.8 µM	3.02 µM	19.6 µM	> 100 µM	93.6 µM	> 100 µM	5.09 µM	47.6 µM	31.6 µM	–	–	–	–	–	–	–	–	–	–
CC(=O)O.CC(=O)O.CC(=O)O.CC(=O)O.CC(=O)O.CC(=O)O.O.[Ti].[Ti]	> 100 µM	> 100 µM	> 100 µM	> 100 µM	> 100 µM	> 100 µM	> 100 µM	> 100 µM	> 100 µM	> 100 µM	> 100 µM	> 100 µM	> 100 µM	> 100 µM	> 100 µM	> 100 µM	> 100 µM	> 100 µM	> 100 µM	> 100 µM
O=c1n(CC2CO2)c(=O)n(CC2CO2)c(=O)n1CC1CO1 (centres undefined)	24.2 µM and 84.8 µM and > 100 µM	134 µM and > 100 µM	78.4 µM and 52.2 µM and 25.5 µM	27 µM and 108 µM and > 100 µM	78.3 µM and 90.6 µM and > 100 µM	148 µM and > 100 µM	399 µM and > 100 µM	109 µM and 23.8 µM	41.9 µM and 75.5 µM	88.6 µM and 118 µM and > 100 µM	8.38 µM and 4.15 µM	2.04 µM	25 µM and 11.1 µM	11.4 µM and 21.2 µM	13.1 µM and 25.7 µM and 11.9 µM	25.3 µM and 12.9 µM	28.4 µM and 17.6 µM	4.01 µM	5.58 µM	21.1 µM and 6.42 µM
C=C(C=O)C1CCC2(C(=O)O)CCC3(C)C(CCC4C5(C)CCC(O)C(C)(C)C5CCC43C)C12 (centres undefined)	6.73 µM	28.7 µM	6.18 µM	3.36 µM	4.47 µM	32.2 µM	> 100 µM	2.99 µM	3.57 µM	2.16 µM	2.48 µM	4.58 µM	2.64 µM	1.93 µM	1.65 µM	4.09 µM	2.64 µM	1.34 µM	1.64 µM	0.627 µM
NC(=NCCCOc1ccc(Cl)cc1)Nc1ccc(C(F)(F)F)cc1	4.32 µM	12.6 µM	3.25 µM	2.64 µM	4.15 µM	6.05 µM	4.32 µM	5.52 µM	3.61 µM	7.37 µM	1.65 µM	2.78 µM	1.54 µM	1.2 µM	1.72 µM	2.18 µM	1.75 µM	1.42 µM	1.81 µM	1.85 µM
COc1ccc2c(c1)CCC1C2CC[C@@]2(C)C1CC1=CC(COC(C)=O)C3C(=O)c4ccccc4C(=O)C3C12 (some centres undefined)	> 100 µM	> 100 µM	> 100 µM	> 100 µM	> 100 µM	> 100 µM	> 100 µM	> 100 µM	> 100 µM	> 100 µM	> 100 µM	> 100 µM	> 100 µM	> 100 µM	> 100 µM	> 100 µM	51.2 µM	59.8 µM	47.3 µM	61.7 µM
O=S(=O)(Nc1cc(F)cc(Cl)c1)c1ccc(-c2cnc(C3CC3)o2)cc1	20.9 µM	19.7 µM	11.8 µM	18.7 µM	17 µM	21.5 µM	40.6 µM	6.93 µM	14.5 µM	17.6 µM	4.88 µM	1.9 µM	1.59 µM	3.71 µM	0.529 µM	3.72 µM	2.74 µM	1.07 µM	0.458 µM	2.96 µM
CC(O)C(N=Cc1ccccc1[O-])C(=O)[O-].CC(O)C(N=Cc1ccccc1[O-])C(=O)[O-].[Co+2] (centres undefined)	> 100 µM	> 100 µM	> 100 µM	> 100 µM	> 100 µM	> 100 µM	> 100 µM	> 100 µM	> 100 µM	> 100 µM	> 100 µM	> 100 µM	> 100 µM	59.8 µM	> 100 µM	> 100 µM	94.4 µM	> 100 µM	65.8 µM	76.5 µM
